Measured values taken from article PMC11492869, “Dimerization and lysine substitution of melittin have differing effects on bacteria” (Frontiers in Pharmacology, 2024).
Values after ≈ are worked out from the molar mass of the structure shown. Read-outs that look alike come from different tables or passages of the source.

Legend:
Assay type in all cases: cell-based
[1] = system: E. coli ATCC 8739; conditions: cation-adjusted MHB, 1 × 10^5 cells/well, 90 min incubation with peptide at 37°C, then growth monitored 20 h at OD630, Lambert and Pearson analysis, mean ± SD, at least three biological repeats
Protocol: (§1) For the antimicrobial peptide assays, a 10 mL starter culture was produced by taking single colonies from LB agar plates to inoculate in Lysogeny/Luria Broth (1% w/v Oxoid Tryptone, 0.5% w/v NaCl, 0.5% w/v Oxoid Yeast Extract, pH 7.0, Thermo Scientific Pty, Ltd., Sydney, Australia) for bacteria; S. aureus ATCC 29213 and E. coli ATCC 8739 were grown aerobically at 37°C in an orbital shaker (Minitron, Infors HT) at 200 rpm. After overnight incubation, 0.5–1.0 mL of the starter culture was used to inoculate fresh LB broth (20 mL), and its growth was monitored at 600 nm using a spectrophotometer (model Varian Cary 50 Bio UV-Vis). Bacteria were harvested during the late exponential growth phase, and CFUs/mL were determined using the growth curve data set that correlated OD600 to CFUs/mL.
Antibacterial assays were undertaken to determine the minimum inhibitory concentration (MIC), the minimum bactericidal concentration (MBC), and the level of membrane disruption of each of the antimicrobial peptides (AMPs) and multimerized AMPs. For each bacterium, a stock solution (2 × 10^6 cells/mL) in cation-adjusted Mueller Hinton Broth (MHB) was made, and an aliquot was incubated with AMPs within 15 min from viable cell count and stock preparation. […] After the 90-min incubation period, the antimicrobial activity (MIC and MBC) was determined as follows: […]

[2] = system: E. coli ATCC 8739; conditions: cation-adjusted MHB, 90 min incubation at 37°C, plated on LB agar 12–24 h, lowest concentration giving less than one CFU (≥99.9% reduction), mean ± SD, at least three biological repeats
Protocol: as §1
(§2) Antibacterial assays were undertaken to determine the minimum inhibitory concentration (MIC), the minimum bactericidal concentration (MBC), and the level of membrane disruption of each of the antimicrobial peptides (AMPs) and multimerized AMPs. […] After the 90-min incubation period, the antimicrobial activity (MIC and MBC) was determined as follows:
(§3) The CLSI protocol was followed to determine MBC. After incubation, bacteria were serially diluted (1:10) in PBS, plated on LB agar, and incubated for 12–24 h at 37°C; then, the CFUs were quantified. […]

[3] = system: S. aureus ATCC 29213; assay: microbe, parasite or virus in culture; conditions: 90 min incubation at 37°C, plated on LB agar 12–24 h, lowest concentration giving less than one CFU (≥99.9% reduction), mean ± SD, at least three biological repeats
Protocol: as §1, §2, §3

[4] = system: H4IIE cells; assay: Cytotoxicity (cell lysis), LDH release assay; conditions: for TI (cell lysis): H4IIE, LD50/MBC50
Protocol: (§4) To determine toxicity toward mammalian cells, 1 × 10^4 cells/well of HEK-293 (ATCC CRL-1573TM) or H4IIE in a total volume of […] in media (Eagle’s Minimum Essential Medium (EMEM) supplemented with 10% v/v fetal bovine serum, 5% v/v L-glutamine and 5% v/v penicillin/streptomycin) were seeded into 96-well plates and cultured at 37°C in a 5% CO2 incubator for 16–20 h. When cells were ≥90% confluent, the 100 µL media was removed and replaced with 50 μL serial dilutions of the AMP in media (final concentration 20–0.5 μM) and cultured at 37°C in a 5% CO2 incubator for 90 min. From each well, 50 µL was transferred to a new plate. To the 50 μL, 50 µL of lactate dehydrogenase (LDH) solution (CytoTox 96® Non-Radioactive Cytotoxicity Assay kit, Promega) was added to each well and incubated for a further 30 min at room temperature and protected from light. Cell death was determined by measuring absorbance at 490 nm using a microplate reader (PerkinElmer 1,420 Multilabel Counter VICTOR3). Positive and negative controls for inhibition were taken as cells incubated with lysis solution (CytoTox 96® Non-Radioactive Cytotoxicity Assay kit, Promega) and cells incubated in media alone, respectively. The background absorbance of media alone was subtracted from the sample absorbance, and the percentage of inhibition was calculated using the following formula: % Cytotoxicity=A490 test sample−A490 negative control/A490 positive control−A490 negative control×100.
(§5) The percentage of lysis was plotted against peptide concentration, and linear regression analysis was used to determine the AMP concentration needed to lyse 50% (LD50) of the cells.

[5] = system: HEK-293 (ATCC CRL-1573) cells; assay: Cytotoxicity (cell lysis), LDH release assay; conditions: for TI (cell lysis): HEK293, LD50/MBC50
Protocol: as §4, §5

[6] = system: H4IIE cells; assay: Inhibition of cell proliferation, MTS assay; conditions: for TI (cell proliferation): H4IIE, IC50/MIC50
Protocol: (§6) To determine the inhibition of cell proliferation, 20 μL of 3-(4,5-dimethylthiazol-2-yl)-5-(3-carboxymethoxyphenyl)-2-(4-sulfophenyl)-2H-tetrazolium (MTS) solution (CellTiter 96 AQueous Non-Radioactive Cell Proliferation Assay kit, Promega) was added to the remaining 100 µL from the toxicity assay, and the plates were incubated for a further 1 h at 37°C in a 5% CO2 incubator protected from light. Cell proliferation was determined by measuring absorbance at 490 nm using a microplate reader (PerkinElmer 1,420 Multilabel Counter VICTOR3). Positive and negative controls for inhibition were taken as cells incubated with lysis solution (CytoTox 96® Non-Radioactive Cytotoxicity Assay kit, Promega) and cells incubated in media alone, respectively. The background absorbance of media alone was subtracted from the samples, and the percentage of inhibition was calculated using the following formula: % Inhibition=A490 test sample−A490 negative control/A490 positive control−A490 negative control×100.
(§7) The percentage of inhibition was plotted against peptide concentration, and linear regression analysis was used to determine the AMP concentration needed to inhibit 50% (IC50) of cell growth.

[7] = system: HEK-293 (ATCC CRL-1573) cells; assay: Inhibition of cell proliferation, MTS assay; conditions: for TI (cell proliferation): HEK293, IC50/MIC50
Protocol: as §6, §7

[8] = system: Chicken red blood cells (RBCs); assay: Hemolysis assay
Protocol: Chicken red blood cells (RBCs) in Alsever’s solution (RBCs, Equicell, Victoria, Australia) were diluted 1 in 20 in PBS (pH 7.4), pelleted by centrifugation, and washed three times in PBS (1,000 g, 10 min). The RBCs were counted using a cell counter (Coulter Particle Counter Z series, Beckman Coulter) and diluted to a final concentration of 2 × 10^7 cells/mL. Aliquots (100 μL) of the RBC solution were seeded into a V-bottomed 96-well plate containing 100 μL of serial dilutions (10–0.08 μM) of the AMP in PBS and incubated in a humidified atmosphere containing 5% CO2 at 37°C for 2 h. Following incubation, the RBCs were pelleted in a centrifuge (1,000 g, 10 min), and the amount of hemoglobin released in 100 μL aliquots of the supernatant was determined by measuring the absorbance at 405 nm using a microplate reader (PerkinElmer 1,420 Multilabel Counter VICTOR3). Positive and negative controls for hemolysis were taken as RBC lysed with 1% v/v Triton X-100 and RBC suspension in PBS, respectively. The percentage of hemolysis was calculated using the following formula: % Hemolysis A405 test sample−A405 negative control / A405 positive control−A405 negative controlx 100.
The percentage hemolysis was plotted against peptide concentration, and linear regression analysis was used to determine the hemolytic concentration needed to lyse 50% (HC50) of RBCs.

| Molecule | MIC [1] [µM] | MBC [2] [µM] | MBC ([3]; Staphylococcus aureus, ATCC29213, cation-adjusted MHB, read-out: MBC) [µM] | MBC ([3]; cation-adjusted MHB) [µM] | LD50 ([4]; H4IIE cells, LDH release, 90 min exposure at 37°C, 20–0.5 μM, concentration lysing 50% of cells by linear regression, mean ± SD, at least three biological repeats) [µM] | TI (cell lysis) ([4]; MBC50 toward S. aureus 29213) | TI (cell lysis) ([4]; MBC50 towards E. coli 8729) | TI (cell lysis) ([5]; MBC50 toward S. aureus 29213) | TI (cell lysis) ([5]; MBC50 towards E. coli 8729) | LD50 ([5]; HEK293 cells, LDH release, 90 min exposure at 37°C, 20–0.5 μM, concentration lysing 50% of cells by linear regression, mean ± SD, at least three biological repeats) [µM] | IC50 ([6]; H4IIE cells, MTS proliferation assay after 90 min exposure, 1 h MTS, linear regression, mean ± SD, at least three biological repeats) [µM] | TI (cell proliferation) ([6]; MIC50 toward S. aureus 29213) | TI (cell proliferation) ([6]; MIC50 towards E. coli 8729) | TI (cell proliferation) ([7]; MIC50 toward S. aureus 29213) | TI (cell proliferation) ([7]; MIC50 towards E. coli 8729) | IC50 ([7]; HEK293 cells, MTS proliferation assay after 90 min exposure, 1 h MTS, linear regression, mean ± SD, at least three biological repeats) [µM] | HC50 ([8]; chicken RBCs in PBS pH 7.4, 2 × 10^7 cells/mL stock, 10–0.08 μM, 2 h at 37°C, absorbance 405 nm, 1% Triton X-100 positive control, mean ± SD, at least three biological repeats) [µM] | TI (hemolysis) ([8]; chicken RBCs, HC50/MBC50, MBC50 toward S. aureus 29213) | TI (haemolysis) ([8]; chicken RBCs, HC50/MBC50, MBC50 towards E. coli 8729) |
| --- | --- | --- | --- | --- | --- | --- | --- | --- | --- | --- | --- | --- | --- | --- | --- | --- | --- | --- | --- |
| Gentamycin | 2.27 ± 0.33 | 3.3 ± 0.78 | – | – | – | – | – | – | – | – | – | – | – | – | – | – | – | – | – |
| CN[C@H](CC(C)C)C(=O)N[C@H]1C(=O)N[C@@H](CC(N)=O)C(=O)N[C@H]2C(=O)N[C@H]3C(=O)N[C@H](C(=O)N[C@H](C(=O)O)c4cc(O)cc(O)c4-c4cc3ccc4O)[C@H](O)c3ccc(c(Cl)c3)Oc3cc2cc(c3O[C@@H]2O[C@H](CO)[C@@H](O)[C@H](O)[C@H]2O[C@H]2C[C@](C)(N)[C@H](O)[C@H](C)O2)Oc2ccc(cc2Cl)[C@H]1O [Vancomycin] | – | – | 1.61 ± 0.44 (≈ 2.33 µg/mL) | – | – | – | – | – | – | – | – | – | – | – | – | – | – | – | – |
| CC[C@H](C)[C@H](NC(=O)CN)C(=O)NCC(=O)N[C@@H](C)C(=O)N[C@H](C(=O)N[C@@H](CC(C)C)C(=O)N[C@@H](CCCCN)C(=O)N[C@H](C(=O)N[C@@H](CC(C)C)C(=O)N[C@H](C(=O)N[C@H](C(=O)NCC(=O)N[C@@H](CC(C)C)C(=O)N1CCC[C@H]1C(=O)N[C@@H](C)C(=O)N[C@@H](CC(C)C)C(=O)N[C@H](C(=O)N[C@@H](CO)C(=O)N[C@@H](Cc1c[nH]c2ccccc12)C(=O)N[C@H](C(=O)N[C@@H](CCCCN)C(=O)N[C@@H](CCCNC(=N)N)C(=O)N[C@@H](CCCCN)C(=O)N[C@@H](CCCNC(=N)N)C(=O)N[C@@H](CCC(N)=O)C(=O)N[C@@H](CCC(N)=O)C(N)=O)[C@@H](C)CC)[C@@H](C)CC)[C@@H](C)O)[C@@H](C)O)C(C)C)C(C)C [1. Melittin, Melittin] | 6.89 ± 0.72 (≈ 19.6 µg/mL) | 8.67 ± 0.93 (≈ 24.7 µg/mL) | – | 1.76 ± 0.76 (≈ 5.01 µg/mL) | 1.79 ± 0.95 | 2.05 | 0.41 | 0.85 | 0.17 | 0.75 ± 0.21 | 2.88 ± 0.08 | 4.01 | 0.76 | 13.18 | 2.49 | 9.47 ± 3.63 | 0.59 ± 0.04 | 0.67 | 0.14 |
